Measurements published in patent US20180368410A1, “MICROBIOCIDAL OXADIAZOLE DERIVATIVES” (SYNGENTA PARTICIPATIONS AG, priority 2015, published 2018).

How the values were obtained:
Uromyces viciae-Fabael = assay: Uromyces viciae-fabae / field bean / leaf disc preventative (faba-bean rust); format: in vivo, Uromyces viciae-fabae on field bean; conditions: foliar, 288 h, 100 ppm in the applied formulation, inoculated two hours after application, assessed 12 days after application, vs untreated control leaf discs, read-out: disease control
Procedure: (§1) Leaf disks or leaf segments of various plant species are cut from plants grown in a greenhouse. The cut leaf disks or segments are placed in multiwell plates (24-well format) onto water agar. The leaf disks are sprayed with a test solution before (preventative) or after (curative) inoculation. Compounds to be tested are prepared as DMSO solutions (max. 10 mg/ml) which are diluted to the appropriate concentration with 0.025% Tween20 just before spraying. The inoculated leaf disks or segments are incubated under defined conditions (temperature, relative humidity, light, etc.) according to the respective test system. A single evaluation of disease level is carried out 3 to 14 days after inoculation, depending on the pathosystem. Percent disease control relative to the untreated check leaf disks or segments is then calculated.
Field bean leaf discs are placed on water agar in multiwell plates (96-well format) and 10 μl of the formulated test compound diluted in acetone and a spreader pipetted onto the leaf disc. Two hours after application leaf discs are inoculated by spraying a spore suspension on the lower leaf surface. The leaf discs are incubated in a climate cabinet at 22° C. with 18 hour day and 70% relative humidity. The activity of a compound is assessed as percent disease control compared to untreated when an appropriate level of disease damage appears in untreated check leaf disks (12 days after application).
The following compounds at 100 ppm in the applied formulation give at least 80% disease control in this test when compared to untreated control leaf discs under the same conditions, which show extensive disease development.

[1] = test system: Puccinia recondita f. Sp. Tritici; assay: Puccinia recondita f. sp. tritici / wheat / leaf disc preventative (brown rust); format: in vivo, Puccinia recondita f. sp. tritici on wheat cv. Kanzler; conditions: foliar, 200 ppm in the applied formulation, inoculated 1 day after application, assessed 7 to 9 days after application, vs untreated control leaf disks, read-out: disease control
Outline: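 Wheat cv. Kanzler leaf segments on agar were sprayed with compound (DMSO stock diluted with 0.025% Tween20) 1 day before inoculation with spores. Segments were held at 19 °C, 75% rh, 12 h light/dark. Percent disease control versus untreated was scored 7–9 days after application.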

Phakopsora pachyrhizi = Phakopsora pachyrhizi / soybean / leaf disc preventative (Asian soybean rust); format: in vivo, Phakopsora pachyrhizi on soybean; conditions: foliar, 200 ppm in the applied formulation, inoculated one day after application, assessed 12 to 14 days after application, vs untreated control leaf disks, read-out: disease control
Procedure: as §1
Soybean leaf disks are placed on water agar in multiwell plates (24-well format) and sprayed with the formulated test compound diluted in water. One day after application leaf discs are inoculated by spraying a spore suspension on the lower leaf surface. After an incubation period in a climate cabinet of 24-36 hours in darkness at 20° C. and 75% rh leaf disc are kept at 20° C. with 12 h light/day and 75% rh. The activity of a compound is assessed as percent disease control compared to untreated when an appropriate level of disease damage appears in untreated check leaf disks (12 to 14 days after application).
The following compounds at 200 ppm in the applied formulation give at least 80% disease control in this test when compared to untreated control leaf disks under the same conditions, which show extensive disease development.

[2] = test system: Puccinia recondita f. Sp. Triticil; assay: Puccinia recondita f. sp. tritici / wheat / leaf disc curative (brown rust); format: in vivo, Puccinia recondita f. sp. tritici on wheat cv. Kanzler; conditions: foliar, 200 ppm in the applied formulation, applied 1 day after inoculation, assessed 6 to 8 days after application, vs untreated control leaf disks, read-out: disease control
Outline: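 Compounds, prepared from DMSO solutions of at most 10 mg/ml and diluted just before spraying, are applied curatively to inoculated Kanzler wheat leaf segments. Segments are incubated at 19° C and 75% RH in a climate cabinet; disease control relative to untreated is evaluated 6 to 8 days later.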

[3] = test system: Glomerella Lacenarium (Colletotrichum lacenarium); assay: Glomerella lagenarium (Colletotrichum lagenarium) liquid culture / cucumber / preventative (anthracnose); format: cell-based; conditions: 20 ppm in the applied formulation, liquid culture in PDB, 24° C., inhibition of growth measured photometrically 3 to 4 days after application, vs untreated control, read-out: disease control
Outline: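 Spore-based broth assay: conidia mixed into PDB meet compound from a DMSO solution in 96-well format, incubate at 24° C., then inhibition of growth is determined by photometry 3–4 days later relative to the untreated check.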

O=C(NCc1ccc(-c2noc(C(F)(F)F)n2)cc1)c1ccc(Cl)cc1Cl [Compound 1.8, 2,4-dichloro-N-[[4-[5-(trifluoromethyl)-1,2,4-oxadiazol-3-yl]phenyl]methyl]benzamide]
pest or weed control at 100 ppm (Uromyces viciae-Fabael): ≥ 80%

O=C(NCc1ccc(-c2noc(C(F)(F)F)n2)cc1)c1cccc(C(F)(F)F)c1 [Compound 1.9, 3-(trifluoromethyl)-N-[[4-[5-(trifluoromethyl)-1,2,4-oxadiazol-3-yl]phenyl]methyl]benzamide]
pest or weed control at 100 ppm (Uromyces viciae-Fabael): ≥ 80%

O=C(Cc1ccc(C(F)(F)F)cc1)NCc1ccc(-c2noc(C(F)(F)F)n2)cc1 [Compound 1.34, N-[[4-[5-(trifluoromethyl)-1,2,4-oxadiazol-3-yl]phenyl]methyl]-2-[4-(trifluoromethyl)phenyl] acetamide]
pest or weed control at 100 ppm (Uromyces viciae-Fabael): ≥ 80%
pest or weed control at 200 ppm [1]: ≥ 80%

CCC1(C(=O)NCc2ccc(-c3noc(C(F)(F)F)n3)cc2)C(C)C1(Cl)Cl (stereo not shown) [Compound 1.31, 2,2-dichloro-1-ethyl-3-methyl-N-[[4-[5-(trifluoromethyl)-1,2,4-oxadiazol-3-yl]phenyl]methyl] cyclopropanecarboxamide]
pest or weed control at 100 ppm (Uromyces viciae-Fabael): ≥ 80%

O=C(CCc1ccc(Cl)cc1)NCc1ccc(-c2noc(C(F)(F)F)n2)cc1 [Compound 1.11, 3-(4-chlorophenyl)-N-[[4-[5-(trifluoromethyl)-1,2,4-oxadiazol-3-yl]phenyl]methyl] propanamide]
pest or weed control at 100 ppm (Uromyces viciae-Fabael): ≥ 80%

CCOc1ccc(C2(C(=O)NCc3ccc(-c4noc(C(F)(F)F)n4)cc3)CC2(F)F)cc1 (stereo not shown) [Compound 1.35, 1-(4-ethoxyphenyl)-2,2-difluoro-N-[[4-[5-(trifluoromethyl)-1,2,4-oxadiazol-3-yl]phenyl]methyl] cyclopropanecarboxamide]
pest or weed control at 100 ppm (Uromyces viciae-Fabael): ≥ 80%

O=C(CC1CC1)NCc1ccc(-c2noc(C(F)(F)F)n2)c(F)c1 [Compound 1.92, 2-cyclopropyl-N-[[3-fluoro-4-[5-(trifluoromethyl)-1,2,4-oxadiazol-3-yl]phenyl]methyl]acetamide]
pest or weed control at 200 ppm (Phakopsora pachyrhizi): ≥ 80%
pest or weed control at 200 ppm [2]: ≥ 80%
inhibition of growth at 20 ppm [3]: ≥ 80%
pest or weed control at 200 ppm [1]: ≥ 80%

CC1(C(=O)NCc2ccc(-c3noc(C(F)(F)F)n3)c(F)c2)CC1 [Compound 1.65, N-[[3-fluoro-4-[5-(trifluoromethyl)-1,2,4-oxadiazol-3-yl]phenyl]methyl]-1-methyl-cyclopropanecarboxamide]
pest or weed control at 200 ppm (Phakopsora pachyrhizi): ≥ 80%
pest or weed control at 200 ppm [2]: ≥ 80%
inhibition of growth at 20 ppm [3]: ≥ 80%
pest or weed control at 200 ppm [1]: ≥ 80%

O=C(NCCc1ccc(-c2noc(C(F)(F)F)n2)cc1)C1CC1(F)F (stereo not shown) [Compound 1.98, 2,2-difluoro-N-[2-[4-[5-(trifluoromethyl)-1,2,4-oxadiazol-3-yl]phenyl]ethyl] cyclopropanecarboxamide]
pest or weed control at 200 ppm (Phakopsora pachyrhizi): ≥ 80%
pest or weed control at 200 ppm [2]: ≥ 80%
inhibition of growth at 20 ppm [3]: ≥ 80%
pest or weed control at 200 ppm [1]: ≥ 80%

O=C(CC1CC1)NCc1ccc(-c2noc(C(F)(F)F)n2)cc1F [Compound 1.62, 2-cyclopropyl-N-[[2-fluoro-4-[5-(trifluoromethyl)-1,2,4-oxadiazol-3-yl]phenyl]methyl] acetamide]
pest or weed control at 200 ppm (Phakopsora pachyrhizi): ≥ 80%
pest or weed control at 200 ppm [2]: ≥ 80%
inhibition of growth at 20 ppm [3]: ≥ 80%
pest or weed control at 200 ppm [1]: ≥ 80%

O=C(NCCc1ccc(-c2noc(C(F)(F)F)n2)cc1)C1CCC1 [Compound 1.101, N-[2-[4-[5-(trifluoromethyl)-1,2,4-oxadiazol-3-yl]phenyl]ethyl] cyclobutanecarboxamide]
pest or weed control at 200 ppm (Phakopsora pachyrhizi): ≥ 80%
pest or weed control at 200 ppm [2]: ≥ 80%
inhibition of growth at 20 ppm [3]: ≥ 80%
pest or weed control at 200 ppm [1]: ≥ 80%

O=C(CC1CC1)NCCc1ccc(-c2noc(C(F)(F)F)n2)cc1 [Compound 1.105, 2-cyclopropyl-N-[2-[4-[5-(trifluoromethyl)-1,2,4-oxadiazol-3-yl]phenyl]ethyl]acetamide]
pest or weed control at 200 ppm (Phakopsora pachyrhizi): ≥ 80%
pest or weed control at 200 ppm [2]: ≥ 80%
inhibition of growth at 20 ppm [3]: ≥ 80%
pest or weed control at 200 ppm [1]: ≥ 80%
